Results as given in patent US11242361B2 (Proteostasis Therapeutics, Inc., priority 2013, dated 2022).

Target: USP14 (Homo sapiens (Human), UniProt P54578)
Test: USP14 Inhibition Assay
Type: biochemical
Conditions: average value from a minimum of two experimental determinations, read-out: IC50 Category
Description: Example 17: USP14 Inhibition Assay
“I” in the Table below designates an IC50 of >5 μM, “II” in the Table below designates and IC50 between 0.5 and 5 μM, and “III” designates an IC50<0.5 μM. The IC50 values in the Table below represent the average value from a minimum of two experimental determinations.

USP14, sequence (P54578 whole entry, looked up): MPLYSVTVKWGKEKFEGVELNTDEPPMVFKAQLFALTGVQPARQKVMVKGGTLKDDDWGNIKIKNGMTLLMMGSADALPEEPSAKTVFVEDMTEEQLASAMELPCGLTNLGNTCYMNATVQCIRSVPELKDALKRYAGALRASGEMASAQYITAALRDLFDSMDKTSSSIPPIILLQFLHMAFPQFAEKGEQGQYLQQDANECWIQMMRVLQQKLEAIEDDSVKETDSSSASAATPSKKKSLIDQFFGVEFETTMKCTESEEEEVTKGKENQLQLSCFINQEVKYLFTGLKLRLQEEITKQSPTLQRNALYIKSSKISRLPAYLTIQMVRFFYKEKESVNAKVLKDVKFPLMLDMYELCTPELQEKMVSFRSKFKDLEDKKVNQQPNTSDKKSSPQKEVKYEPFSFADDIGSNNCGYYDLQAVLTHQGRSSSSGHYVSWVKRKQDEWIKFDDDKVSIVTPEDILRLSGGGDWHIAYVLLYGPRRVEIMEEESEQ

IC50 [µM] | Compound
< 0.5 | Cc1c(C(=O)CN2CCCCC2)c2ccc(CC(N)=O)cc2n1-c1ccc(C#N)cc1 [Compound 203, 2-(1-(4-Cyanophenyl)-2-methyl-3-(2-(piperidin-1-yl)acetyl)-1H-indol-6-yl)acetamide]
> 5 | Cc1c(C(=O)CN2CCC(CNCC(=O)O)CC2)c2ncc(Br)cc2n1-c1ccc(Cl)cc1 [Compound 386]
> 5 | CN(C)c1c(C(=O)CN2CCCCC2)c2ccccc2n1-c1ccc(Cl)cc1 [Compound 192]
< 0.5 | Cc1c(C(=O)CN2CCCCC2)c2nc(-n3nccn3)ccc2n1-c1ccc(C#N)cc1 [Compound 208, 4-(2-Methyl-3-(2-(piperidin-1-yl)acetyl)-5-(2H-1,2,3-triazol-2-yl)-1H-pyrrolo[3,2-b]pyridin-1-yl)benzonitrile]
> 5 | Cc1c(C(=O)CN2CCN(C)CC2)c2ncc(Br)cc2n1-c1ccc(C#N)cc1 [Compound 330]
> 5 | O=C(CN1CCCCC1)c1cn(-c2ccc(Cl)cc2)c2cc(CO)ccc12 [Compound 115, 1-(1-(4-Chlorophenyl)-6-(hydroxymethyl)-1H-indol-3-yl)-2-(piperidin-1-yl)ethan-1-one]
< 0.5 | CC(=O)OCCc1ccc2c(C(=O)CN3CCCCC3)c(C)n(-c3ccc(C#N)cc3)c2c1 [Compound 205, 2-(1-(4-Cyanophenyl)-2-methyl-3-(2-(piperidin-1-yl)acetyl)-1H-indol-6-yl)ethyl Acetate]
> 5 | O=C(CN1CCC(O)CC1)c1cn(-c2ccc(Cl)cc2)c2ccccc12 [Compound 30]
> 5 | CNCc1ccc2c(C(=O)CN3CCCCC3)cn(-c3ccc(Cl)cc3)c2c1 [Compound 119, 1-(1-(4-Chlorophenyl)-6-((methylamino)methyl)-1H-indol-3-yl)-2-(piperidin-1-yl)ethan-1-one]
< 0.5 | Cc1c(C(=O)CN2CCC(O)CC2)c2ncc(Br)cc2n1-c1ccc(C#N)cc1 [Compound 353]
